The structures appear in SMILES notation.

In general, EC50 refers to the concentration at which the effect is half-maximal.

This assay has as its target mGluR4 (UniProt Q14833). Description: mGluR4 potentiation assay (fluorescence, Ca2+ or thallium/GIRK readout; EC20 agonist). In kind it is cell-based, human / rat. The conditions noted are these: half maximal effective concentration for mGluR4 potentiation; species of receptor not given. How it is done:
The disclosed compounds and compositions can be evaluated for their ability to act as a potentiator of metabotropic glutamate receptor activity, in particular mGluR4 activity, by any suitable known methodology known in the art. For example, Chinese Hamster Ovary (CHO) cells transfected with human mGluR4 or HEK cells co-transfected with rat mGluR4 and the G-protein regulated Inwardly Rectifying Potassium channel (GIRK) were plated in clear bottom assay plates for assay in a Hamamatsu FDSS Fluorometric Plate Reader. The cells were loaded with either a Ca2+-sensitive fluorescent dye or the thallium responsive dye and the plates were washed and placed into a suitable kinetic plate reader. For human mGluR4 assays, a fluorescence baseline was established for 3-5 seconds, the disclosed compounds were then added to the cells, and the response in cells was measured. Approximately two and a half minutes later, a concentration of mGluR4 orthosteric agonist (e.g. glutamate or L-AP4) eliciting approximately 20% (EC20) of the maximal agonist response was added to the cells, and the response was measured. Two minutes later, a concentration of mGluR4 agonist (e.g. glutamate or L-AP4) eliciting 80% (EC80) of the maximal agonist response was added to the cells, and the response was measured. For rat mGluR4/GIRK experiments, a baseline was established for approximately five seconds, disclosed compounds were added, and either an EC20 or EC80 concentration of agonist was added approximately two and one half minutes later. Potentiation of the agonist response of mGluR4 by the disclosed compounds was observed as an increase in response to the EC20 concentration of agonist in the presence of compound compared to the response to agonist in the absence of compound. Similarly, antagonism of the agonist response of mGluR4 by the disclosed compounds was observed as a decrease in response to the EC80 concentration of agonist in the presence of compound compared to the response to agonist in the absence of compound.
The above described assay operated in two modes. In the first mode, a range of concentrations of the disclosed compounds are added to cells, followed by a single fixed concentration of agonist. If the compound acts as a potentiatior, an EC50 value for potentiation and a maximum extent of potentiation by the compound at this concentration of agonist is determined by non-linear curve fitting. If the compound acts as a noncompetitive antagonist, an IC50 value is determined by non-linear curve fitting. In the second mode, several fixed concentrations of the disclosed compounds are added to various wells on a plate, followed by a range in concentrations of agonist for each concentration of disclosed compound. The EC50 values for the agonist at each concentration of compound are determined by non-linear curve fitting. A decrease in the EC50 value of the agonist with increasing concentrations of the sample compound (a leftward shift of the agonist concentration-response curve) is an indication of the degree of mGluR4 potentiation at a given concentration of the sample compound. A decrease in the maximal response of the agonist with increasing concentrations of the sample compounds, with or without a rightward shift in agonist potency, is an indication of the degree of noncompetitive antagonism at mGluR4. The second mode also indicates whether the sample compounds also affect the maximum response to mGluR4 to agonists.

As to `CN1C(=O)N(c2ccc(NC(=O)c3ccccn3)cc2Cl)C(=O)[C@]1(C)Cc1ccccc1` [Example 1.3.64, (S)-N-(4-(4-benzyl-3,4-dimethyl-2,5-dioxoimidazolidin-1-yl)-3-chlorophenyl)picolinamide], the EC50 came to 197 nM.

Regarding `O=C(Nc1ccc(N2C(=O)NC(C3CCCCC3)C2=O)c(Cl)c1)c1ccccn1` (stereo not shown) [Example 1.3.70, N-(3-chloro-4-(4-cyclohexyl-2,5-dioxoimidazolidin-1-yl)phenyl)picolinamide], the EC50 is 743 nM.

In the case of `O=C(Nc1ccc(N2C(=O)C3CN(C(=O)c4ccco4)CCN3C2=O)c(Cl)c1)c1ccccn1` (stereo not shown) [Example 1.3.74, N-(3-chloro-4-(7-(furan-2-carbonyl)-1,3-dioxohexahydroimidazo[1,5-a]pyrazin-2(3H)-yl)phenyl)picolinamide], the EC50 stood at 967 nM.

`O=C(Nc1ccc(N2C(=O)C3COCCN3C2=S)c(Cl)c1)c1cscn1` (stereo not shown) [Example 1.3.35, N-(3-Chloro-4-(1-oxo-3-thioxodihydro-1H-imidazo[5,1-c][1,4]oxazin-2(3H,8H,8aH)-yl)phenyl)thiazole-4-carboxamide]: the EC50 came out at 1490 nM.

For the compound `CN1C(=O)N(c2ccc(NC(=O)c3ccccn3)cc2Cl)C(=O)[C@]1(C)Cc1ccc(F)cc1` [Example 1.3.62, (S)-N-(3-chloro-4-(4-(4-fluorobenzyl)-3,4-dimethyl-2,5-dioxoimidazolidin-1-yl)phenyl)picolinamide], the EC50 worked out at 217 nM.

With `O=C(Nc1ccc(N2C(=O)C3COCCN3C2=S)c(Cl)c1)c1nccs1` (stereo not shown) [Example 1.3.34, N-(3-Chloro-4-(1-oxo-3-thioxodihydro-1H-imidazo[5,1-c][1,4]oxazin-2(3H,8H,8aH)-yl)phenyl)thiazole-2-carboxamide], the concentration giving a half-maximal response (EC50) was 1170 nM.

As to `O=C(Nc1ccc(N2C(=O)C3CCCCN3C2=S)c(Cl)c1)c1cccc(Cl)n1` (stereo not shown) [Example 1.3.75, 6-chloro-N-(3-chloro-4-(1-oxo-3-thioxohexahydroimidazo[1,5-a]pyridin-2(3H)-yl)phenyl)picolinamide], the EC50 stood at 3260 nM.

Turning to `O=C(Nc1ccc(N2C(=O)C3CSCCN3C2=O)c(Cl)c1)c1ccccn1` (stereo not shown) [Example 1.3.40, N-(3-chloro-4-(1,3-dioxodihydro-1H-imidazo[5,1-c][1,4]thiazin-2(3H,8H,8aH)-yl)phenyl)picolinamide], the EC50 was determined as 403 nM.

On to `O=C(Nc1ccc(N2C(=O)C3CCCCN3C2=O)c(Cl)c1)c1cccc(F)n1` (stereo not shown) [Example 1.3.4, N-(3-Chloro-4-(1,3-dioxotetrahydroimidazo[1,5-a]pyridin-2(1H,3H,5H)-yl)phenyl)-6-fluoropicolinamide], for which the EC50 amounted to 1670 nM.

Regarding `CN1C(=O)N(c2ccc(NC(=O)c3ccccn3)cc2Cl)C(=O)C12CC1CCC2C1` (stereo not shown) [Example 1.3.54, N-(3-chloro-4-(3′-methyl-2′,5′-dioxospiro[bicyclo[2.2.1]heptane-2,4′-imidazolidin]-1′-yl)phenyl)picolinamide], the half-maximal effective concentration (EC50) came out at 325 nM.

Turning to `C[C@@]1(Cc2ccccc2)NC(=O)N(c2ccc(NC(=O)c3ncc(F)cc3F)cc2Cl)C1=O` [Example 1.3.66, (S)-N-(4-(4-benzyl-4-methyl-2,5-dioxoimidazolidin-1-yl)-3-chlorophenyl)-3,5-difluoropicolinamide], the EC50 was 2960 nM.

`CC(C)C[C@@]1(C)NC(=O)N(c2ccc(NC(=O)c3ccccn3)cc2Cl)C1=O` [Example 1.3.17, (R)-N-(3-chloro-4-(4-isobutyl-4-methyl-2,5-dioxoimidazolidin-1-yl)phenyl)picolinamide]: the EC50 was 1500 nM.

Consider `O=C(Nc1ccc(N2C(=O)C3CCCCN3C2=S)c(Cl)c1)c1ncc(F)cc1F` (stereo not shown) [Example 1.3.81, N-(3-chloro-4-(1-oxo-3-thioxohexahydroimidazo[1,5-a]pyridin-2(3H)-yl)phenyl)-3,5-difluoropicolinamide], for which the EC50 is 876 nM.

With `O=C(Nc1ccc(N2C(=O)C3COCCN3C2=S)c(Cl)c1)c1cccs1` (stereo not shown) [Example 1.3.33, N-(3-Chloro-4-(1-oxo-3-thioxodihydro-1H-imidazo[5,1-c][1,4]oxazin-2(3H,8H,8aH)-yl)phenyl)thiophene-2-carboxamide], the EC50 is 8460 nM.

Consider `O=C(Nc1ccc(N2C(=O)C3COCCN3C2=O)c(Cl)c1)c1cccc(F)n1` (stereo not shown) [Example 1.3.29, N-(3-Chloro-4-(1,3-dioxodihydro-1H-imidazo[5,1-c][1,4]oxazin-2(3H,8H,8aH)-yl)phenyl)-6-fluoropicolinamide], for which the EC50 stood at 6730 nM.

With `CC(C)C[C@]1(C)NC(=O)N(c2ccc(NC(=O)c3ccccn3)cc2Cl)C1=O` [Example 1.3.16, (S)-N-(3-chloro-4-(4-isobutyl-4-methyl-2,5-dioxoimidazolidin-1-yl)phenyl)picolinamide], the EC50 was found to be 3590 nM.

`CC12CCCCN1C(=S)N(c1ccc(NC(=O)c3cnccn3)cc1Cl)C2=O` (stereo not shown) [Example 1.3.92, N-(3-chloro-4-(8a-methyl-1-oxo-3-thioxohexahydroimidazo[1,5-a]pyridin-2(3H)-yl)phenyl)pyrazine-2-carboxamide]: the EC50 came out at 1910 nM.

For the compound `C[C@]1(Cc2ccccc2)NC(=O)N(c2ccc(NC(=O)c3ccccn3)cc2Cl)C1=O` [Example 1.3.19, (R)-N-(4-(4-Benzyl-4-methyl-2,5-dioxoimidazolidin-1-yl)-3-chlorophenyl)picolinamide], the 50% effective concentration (EC50) was 840 nM.

On to `CC12CCCCN1C(=O)N(c1ccc(NC(=O)c3ncc(F)cc3F)cc1Cl)C2=O` (stereo not shown) [Example 1.3.88, N-(3-chloro-4-(8a-methyl-1,3-dioxohexahydroimidazo[1,5-a]pyridin-2(3H)-yl)phenyl)-3,5-difluoropicolinamide], for which the EC50 stood at 1100 nM.

With `CC12CCCCN1C(=O)N(c1ccc(NC(=O)c3cccc(F)n3)cc1Cl)C2=O` (stereo not shown) [Example 1.3.90, N-(3-chloro-4-(8a-methyl-1,3-dioxohexahydroimidazo[1,5-a]pyridin-2(3H)-yl)phenyl)-6-fluoropicolinamide], the EC50 stood at 1120 nM.

`O=C(Nc1ccc(N2C(=O)C3COCCN3C2=O)c(Cl)c1)c1cccc(Cl)n1` (stereo not shown) [Example 1.3.23, 6-Chloro-N-(3-chloro-4-(1,3-dioxodihydro-1H-imidazo[5,1-c][1,4]oxazin-2(3H,8H,8aH)-yl)phenyl)picolinamide]: the EC50 is 4830 nM.

For the compound `O=C(Nc1ccc(N2C(=O)C3CSCCN3C2=O)c(Cl)c1)c1cccc(F)n1` (stereo not shown) [Example 1.3.42, N-(3-chloro-4-(1,3-dioxodihydro-1H-imidazo[5,1-c][1,4]thiazin-2(3H,8H,8aH)-yl)phenyl)-6-fluoropicolinamide], the EC50 amounted to 1170 nM.

In the case of `CC(C)(C)[C@@H]1NC(=O)N(c2ccc(NC(=O)c3ccccn3)cc2Cl)C1=O` [Example 1.3.57, (S)-N-(4-(4-(tert-butyl)-2,5-dioxoimidazolidin-1-yl)-3-chlorophenyl)picolinamide], the EC50 is 200 nM.

Regarding `O=C(Nc1ccc(N2C(=O)NC3(CCCC3)C2=O)c(Cl)c1)c1ccccn1` [Example 1.3.13, N-(3-chloro-4-(2,4-dioxo-1,3-diazaspiro[4.4]nonan-3-yl)phenyl)picolinamide], the EC50 was 795 nM.

With `O=C(Nc1ccc(N2C(=O)C3CCCCN3C2=S)c(Cl)c1)c1cccs1` (stereo not shown) [Example 1.3.77, N-(3-chloro-4-(1-oxo-3-thioxohexahydroimidazo[1,5-a]pyridin-2(3H)-yl)phenyl)thiophene-2-carboxamide], the EC50 came to 2780 nM.

Take `O=C(Nc1ccc(N2C(=O)NC3(CCCCC3)C2=O)c(Cl)c1)c1ccccn1` [Example 1.3.12, N-(3-chloro-4-(2,4-dioxo-1,3-diazaspiro[4.5]decan-3-yl)phenyl)picolinamide]: the EC50 was 229 nM.

`O=C(Nc1ccc(N2C(=O)C3COCCN3C2=S)c(Cl)c1)c1cnccn1` (stereo not shown) [Example 1.3.31, N-(3-Chloro-4-(1-oxo-3-thioxodihydro-1H-imidazo[5,1-c][1,4]oxazin-2(3H,8H,8aH)-yl)phenyl)pyrazine-2-carboxamide]: the EC50 came to 3560 nM.

Regarding `CCN1C(=O)N(c2ccc(NC(=O)c3ccccn3)cc2Cl)C(=O)[C@]1(C)Cc1ccccc1` [Example 1.3.65, (S)-N-(4-(4-benzyl-3-ethyl-4-methyl-2,5-dioxoimidazolidin-1-yl)-3-chlorophenyl)picolinamide], the EC50 came to 236 nM.

The values are drawn from US8779157B2, “MGLUR4 allosteric potentiators, compositions, and methods of treating neurological dysfunction” (Vanderbilt University, priority 2009, dated 2014).
